Experimental data: patent US7276337B2, “Compositions and methods for visual ribonuclease detection assays” (Integrated DNA Technologies, Inc., priority 2000, dated 2007)

How the values were obtained:
DNase I = DNase I (Bos taurus, UniProt P00639); assay: Fluorometric detection nuclease assay, DNase I (nuclease specificity); type: biochemical; conditions: DNase I 2 units/ml; Substrate 50 nM; 37° C. 1 hour; 490 nm excitation
Description: (§1) Nuclease assays were conducted using the method of the invention. SEQ ID NO:2 and SEQ ID NO:3 oligonucleotides were individually mixed in 1× Assay Buffer at a concentration of 50 nM (150 pmoles oligonucleotide in 3 mls volume). […] Assays were set up directly in cuvettes as follows:
(§2) Assay Mixes were incubated at 37° C. for 1 hour. Fluorescence emission spectra were measured using a PTI fluorometer with 490 nm excitation. Substrate SEQ ID NO:2 (having chimeric RNA-DNA composition) reacted with both DNase I (undesired) and RNase A (desired).

RNase A = target: T1, RNase A (Bos taurus, UniProt P61823); assay: Fluorometric detection nuclease assay, RNase A; type: biochemical, mammalian; conditions: RNase A 0.33 ug/ml; Substrate 50 nM; 37° C. 1 hour; 490 nm excitation
T1 sequence (P61823 27-150): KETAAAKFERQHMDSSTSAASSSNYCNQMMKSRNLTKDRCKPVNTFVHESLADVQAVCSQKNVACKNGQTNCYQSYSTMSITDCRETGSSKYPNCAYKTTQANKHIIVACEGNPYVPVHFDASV
Description: as §1, §2
Nuclease assays were conducted using the method of the invention. The Substrate (SEQ ID NO:30) was mixed in 1× Assay Buffer at a concentration of 50 nM (150 pmoles oligonucleotide in 3 mls volume). Test nucleases were added to respective Assay Mixes, including 1 ul of RNase A (1 ug), 1 ul of RNase 1 (100 units), or 1 ul of RNase T1 (1000 units). […] Assays were set up directly in cuvettes as follows:
Assay Mixes were incubated at 37° C. for 1 hour. Assays were transferred to cuvettes and fluorescence emission at 520 nm was measured using a PTI fluorometer with 490 nm excitation. Substrate SEQ ID NO:30, a preferred Substrate of the invention, reacted with (i.e., detected) all three RNase enzymes, verifying that Substrate compositions of the invention are sensitive to a variety of RNase enzymes.
Substrate SEQ ID NO:30 was mixed in 1× Assay Buffer at a concentration of 50 nM (150 pmoles oligonucleotide in 3 mls volume). RNase A was added at final concentrations of 10 ng/ml, 2 ng/ml, 1 ng/ml, and 0.4 ng/ml. […] Assay mixes were incubated at 37° C. in a cuvette directly in a PTI fluorometer. Fluorescence emission at 520 nm with 490 nm excitation was measured over time. At high nuclease concentrations, the reaction goes rapidly to completion. At lower nuclease concentrations, the reaction rate decreases but with longer incubation times an easily detectable signal is generated. Substrate concentration is fixed and input enzyme (i.e., the test sample) varies. Since the background is stable (monitored in the control reaction), use of extended incubation periods will increase the sensitivity of the assay.
Assays were conducted using the method of the invention with fluorometric detection. Substrate SEQ ID NO:30 was mixed in 1× Assay Buffer at a concentration of 50 nM (50 pmoles ODN in 1.0 ml volume) in RNase-free disposable cuvettes. […] Dilutions of stock RNase A, RNase 1, and RNase T1 were made in water. Undiluted and diluted nuclease (1 ul) was added to respective 1.0 ml Assay Mixes resulting in final dilution factors of 10^−3, 10^−4, 10^−5, 10^−6, 10^−7, 10^−8, and 10^−9. Assays were incubated at 37° C. for 1 hour and examined for fluorescence emission at 520 nm using 490 nm excitation in a PTI fluorometer. Final enzyme concentration reported notes the lowest concentration tested that was reproducibly positive with a signal:noise ratio of at least 2:1.

Ribonuclease A = target: T2, Ribonuclease A (Bos taurus, UniProt P61823); assay: Visual detection ribonuclease assay, cleavage of Substrate ODN by RNase A; type: biochemical, mammalian; parameters: key to Sensitivity of Substrate ODN to Ribonuclease A, relative signal intensity: +++ = maximum intensity; ++ = moderate intensity; + = faint but above background; − = negative (identical to background); conditions: Substrate 500 nM; for Sensitivity of Substrate ODN to Ribonuclease A, relative signal intensity: visual inspection, UV excitation, 37° C. 60 minutes
T2 sequence (P61823 27-150): T1 sequence (P61823 27-150)
Description: Nuclease assays were conducted using the methods of the invention. SEQ ID NO:2 and SEQ ID NO:30 oligonucleotides were individually mixed in 1× Assay Buffer at a concentration of 500 nM (50 pmoles ODN in 100 ul volume) in thin-walled, UV transparent microtubes. RNase A (1 ul, diluted to 0;1 ug/ul) was added to the respective Assay Mixes. […] Assays were set up directly in microtubes as follows:
Assay Mixes were incubated at room temperature for 10 minutes. Assays were visually examined for fluorescence emission directly in the assay tubes without further manipulation. Tubes were suspended above an ultraviolet light source, visually inspected, and photographed using a digital camera. […] The “positive” and “control” reactions appeared markedly different and were easily distinguished. […] The “positive” and “control” reactions were not markedly different to visual inspection.
(§3) Nuclease assays were conducted using the method of the invention with both visual and fluorometric detection methods. Substrates were individually mixed in 1× Assay Buffer at a concentration of 50 nM (50 pmoles oligonucleotide in 1 ml volume) for fluorometric detection or at a concentration of 500 nM (50 pmoles of oligonucleotide in 100 ul volume) for visual detection. Test nucleases were added to respective Assay Mixes beginning at 1 ul stock reagent and proceeding with a 1:10 serial dilution until undetectable. Reaction mixes were incubated at 37° C. for 60 minutes. Fluorometric detection was performed as outlined in Example 2. Visual detection was performed as outlined in Example 1.
(§4) Table 6: Sensitivity of different Substrate ODNs to Ribonuclease A. A series of Substrate ODNs were synthesized and tested for sensitivity to RNase A degradation. Stock enzyme was serial diluted to achieve final concentrations of 1 ng/ml, 100 pg/ml, and 10 pg/ml as indicated. Reactions were examined for fluorescence emission by visual inspection using an ultraviolet (UV) light source for excitation. Results were scored as +++, ++, +, or − based on relative signal intensity.
(§5) It is commonly accepted that fluorometry provides for high sensitivity. To be useful, the visual method must also offer high sensitivity. Assays were conducted using the method of the invention with visual detection. Substrate SEQ ID NO:30 was mixed in 1× Assay Buffer at a concentration of 500 nM (50 pmoles ODN in 100 ul volume) in thin-walled, UV transparent tubes. […] Dilutions of stock RNase A, RNase 1, and RNase T1 were made in water. Undiluted and diluted nuclease (1 ul) was added to respective 100 ul Assay Mixes resulting in final dilution factors of 10^−2, 10^−3, 10^−4, 10^−5, 10^−6, and 10^−7. Assays were incubated at room temperature for 10 minutes and visually examined for fluorescence emission with UV excitation. […] The experiment took about 30 minutes to perform, including 15 minutes to set-up serial dilutions, 10 minutes incubation, and 5 minutes to visualize and photograph. Thus the method of the invention allows for a rapid, simple, and convenient visual assay for the presence of ribonuclease activity.

Ribonuclease T1 = target: T3, Ribonuclease T1 (Aspergillus oryzae, UniProt P00651); assay: Visual detection ribonuclease assay, cleavage of Substrate ODN by RNase T1; type: biochemical; parameters: key to Sensitivity of Substrate ODN to Ribonuclease T1, relative signal intensity: +++ = maximum intensity; ++ = moderate intensity; + = faint but above background; − = negative (identical to background); conditions: visual inspection, UV excitation, Substrate 500 nM, 37° C. 60 minutes
T3 sequence (P00651 27-130): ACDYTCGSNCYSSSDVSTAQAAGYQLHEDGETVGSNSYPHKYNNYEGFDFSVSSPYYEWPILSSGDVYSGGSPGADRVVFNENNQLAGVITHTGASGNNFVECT
Description: as §3
as §4, with “Table 7:” for “Table 6:”, “Ribonuclease T1.” for “Ribonuclease A.”, “RNase T1” for “RNase A”, “of 0.001 units/ml, 0.0001 units/ml,” for “of 1 ng/ml, 100 pg/ml,”, “and 0.00001 units/ml” for “and 10 pg/ml”
as §5

Sequence of DNase I (P00639 23-282): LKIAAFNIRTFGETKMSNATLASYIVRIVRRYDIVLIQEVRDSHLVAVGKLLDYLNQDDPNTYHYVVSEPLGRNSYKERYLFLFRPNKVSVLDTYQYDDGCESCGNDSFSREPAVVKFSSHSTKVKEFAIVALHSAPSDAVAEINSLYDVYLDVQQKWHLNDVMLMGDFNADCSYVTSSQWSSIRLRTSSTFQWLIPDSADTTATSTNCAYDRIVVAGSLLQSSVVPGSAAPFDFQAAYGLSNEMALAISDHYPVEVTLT

| Substance | Reactivity with DNase I (fluorescence emission spectra) (DNase I) | Reactivity with RNase A (fluorometer) (RNase A) | Fluorescence emission by visual inspection in the presence of RNase (Ribonuclease A; RNase A 1.0 ug/ml, room temperature 10 minutes, UV light source) | Fluorescence emission by visual inspection in the absence of RNase (control reaction) (Ribonuclease A; no nuclease, room temperature 10 minutes, UV light source) | Sensitivity of Substrate ODN to Ribonuclease T1, relative signal intensity (Ribonuclease T1; RNase T1 10^−3 units/ml) | Sensitivity of Substrate ODN to Ribonuclease T1, relative signal intensity (Ribonuclease T1; RNase T1 10^−4 units/ml) | Sensitivity of Substrate ODN to Ribonuclease T1, relative signal intensity (Ribonuclease T1; RNase T1 10^−5 units/ml) | Sensitivity of Substrate ODN to Ribonuclease A, relative signal intensity (Ribonuclease A; RNase A 10 pg/ml) | Sensitivity of Substrate ODN to Ribonuclease A, relative signal intensity (Ribonuclease A; RNase A 100 pg/ml) | Sensitivity of Substrate ODN to Ribonuclease A, relative signal intensity (Ribonuclease A; RNase A 1 ng/ml) |
| --- | --- | --- | --- | --- | --- | --- | --- | --- | --- | --- |
| 5′ Fluorescein-AuAA-Tamra 3′ (NAUAAN; 5' fluorescein and 3' TAMRA labels, nucleotide chemistry not given here) [SEQ ID NO:2, reference compound] | reacted | reacted | changed somewhat in color and slightly increased in intensity | emitted light |  |  |  |  |  |  |
| 5′ Fluorescein-AAuAA-Dabcyl 3′ (NAAUAAN; 5' fluorescein and 3' Dabcyl labels, nucleotide chemistry not given here) [SEQ ID NO:3] | did not react | retained reactivity |  |  | − | − | − | − | + | ++ |
